Patent publication US11504075B2, “System, methods, and devices for calculating hypoxic fraction and equilibration rate of small molecular weight tracers using dynamic imaging” (UNIVERSITY HEALTH NETWORK, priority 2017, dated 2022)
Where “and” joins values, the source holds several entries; their conditions need not be identical. Equal values may be shown once.

Legend:
[1] = in most tissue; FAZA and similarly sized molecules; cited from earlier work
[2] = tested on: pancreatic ductal adenocarcinoma tumours; assay: Dynamic FAZA-PET imaging with two-tissue compartment model analysis in patients with pancreatic ductal adenocarcinoma; type: in vivo, human (patients)
Description: In an example experiment, the pharmacokinetics of FAZA in twenty patients with pancreatic ductal adenocarcinoma (PDAC) were modeled, applying principles of diffusive equilibration to interpret transport data calculated from a standard two-tissue compartment model.
Data was taken from twenty patients with biopsy-confirmed pancreatic ductal adenocarcinoma and FAZA-PET scans. Dynamic PET imaging scans were acquired over one hour following injection of FAZA. The one hour time-activity curves (TAC1) were each binned into thirty-four frames: twelve ten-second frames, followed by eight thirty-second frames, followed by seven two-minute frames, followed by seven five-minute frames. Patients returned for a static PET scan at two hours. CT scans used for co-registration were taken at the beginning of the dynamic and static PET scans.
PET activity data was obtained for regions of interest (ROIs) contoured using co-registered CT images. Tumour ROIs were contoured by a radiologist using the CT scan at two hours. This was co-registered manually to the initial CT scan and the two CT ROI sets were co-registered to the dynamic and static PET scans. In order to minimize effects resulting from high liver uptake of FAZA, aorta ROIs were contoured from the same range of PET/CT slices (along the cranial-caudal axis) as the tumour ROIs. At the level of the pancreas, the aorta is between 1.5 and 2 cm in diameter; to minimize partial volume effects, ROIs in the aorta were restricted to 0.75 cm in diameter and combined so that at least twenty-five PET voxels (3.9×3.9×3.3 mm^3 each) were imaged.
Dynamic PET TACs of FAZA were analyzed using the two-tissue compartment model:
Here, the concentration of tracer in the extravascular space of an imaged region has been partitioned into an unbound, diffusing component Cd as well as a component Cb that is bound by hypoxia. CIn is the “input” function, which was taken to be the imaged tracer concentration in the aorta, as described above. As noted earlier, k1 and k2 are the vascular influx and efflux coefficients and k3 is the tracer trapping rate. The total tracer concentration in an imaged region is C(t)=vbCIn(t)+(1−vb)[Cd(t)+Cb(t)], (5) where vb is the volume fraction occupied by blood in the region of interest. The above model was fitted to both the one-hour TACs (TAC1) as well as the combined two-hour TAC (TAC2) comprising the one-hour TACs plus static scans at two hours (in part to assess co-registration errors, which should be greater for TAC2). Coefficients (vb, k1, k2, and k3) were determined by minimizing
[formula] where Cmodel(ti) are the model activity values [Eqs. (3)-(5)] and Cdata(ti) are the measured values acquired during the N discrete time frames; N=34 for TAC1 and N=35 for TAC2. […] Equation 6 can be minimized with Cmodel(ti) calculated using trapezoidal integration.
An important tissue transport quantity is the distribution volume:
It represents the volume fraction of an imaged ROI in which tracer initially fills; i.e., rapidly equilibrates in. Patlak's formula,
To account for the unexpected correlations between k3 and vd, a model (shown schematically in FIG. 23) may be used in which an imaged voxel is comprised of two tissue types: one in which tracer reaches diffusive equilibration rapidly (with concentration C^(r)), and one in which it reaches equilibrium slowly (with concentration C^(s)): Cd(t)=vsCd^(s)+(1−vs)Cd^(r)(t). (11)
The factors of 1−vs and vs here ensure detailed balance amongst the compartments. kb is the binding rate due to hypoxia and keq represents the equilibration rate in the regions of slow-equilibration. This may be on the order of (0.1→1) hr-^1 when equilibration is driven by diffusion; see Eq. (2).
To distinguish kb and Keq in k3, voxel-scale k3 values were arranged into bins based on distribution volume values. […]

- mean (population-averaged) equilibration rate keq in slow-equilibrating regions ([2]; all twenty patients, standard deviation 0.29 hrs^−1 across patients): 0.44 h⁻¹ and ~0.44 ± 0.29 h⁻¹
- equilibration rate keq ([2]; patient 1, fit of voxel-scale Keq to Eq. (18)): 0.45 h⁻¹
- equilibration rate keq ([2]; patient 2, fit of voxel-scale Keq to Eq. (18)): 0.52 h⁻¹
- average distribution volume of tumour ([2]; resected tumour exhibiting abundant apical mucin (FIG. 12 right)): 0.76
- average distribution volume of tumour ([2]; resected tumour exhibiting little mucin (FIG. 12 left)): 0.92
- vascular influx rate k1, population average of tumour-scale values ([2]; twenty PDAC patients): ~0.3 min⁻¹
SMILES: O=[N+]([O-])c1nccn1[C@H]1O[C@H](CF)[C@@H](O)[C@@H]1O [FAZA, fluoroazomycinarabinoside]
- diffusivity D [1]: ~10 μm^2/s
